Results taken from US20090118253A1, “COMPOSITIONS AND METHODS FOR TREATING DYSFUNCTIONAL UTERINE BLEEDING” (REPROS THERAPEUTICS INC., priority 2007, published 2009).

Legend:
[1] = test system: rabbit progesterone receptor (rbPR) and glucocorticoid receptor (rbGR); assay: Receptor-binding assays, ratio of relative binding affinities rbPR/rbGR; conditions: ratio of relative binding affinities (RBA = EC50 of standard/EC50 of test compound x 100) for rbPR and rbGR
Description: Certain antiprogestins were tested in receptor-binding assays for their ability to bind rabbit progesterone receptor (rbPR) and glucocorticoid receptor (rbGR). Briefly, cytosol containing PR or GR were prepared in TEGMD buffer (10 mM Tris, pH 7.2, 1.5 mM EDTA, 0.2 mM sodium molybdate, 10% glycerol, 1 mM DTT) from uterus or thymus, respectively, of estradiol-primed immature rabbits. For PR binding, the cytosol was incubated with 6 nM 1,2-[^3H]progesterone (50.0 Ci/mmole) and competitors were added at concentrations from 2 to 100 nM. For binding to GR, the cytosol was incubated with 6 nM 6,7-[^3H]-dexamethasone (40 Ci/mmol) and test compounds were added at concentrations from 20 to 100 nM. After overnight incubation at 4 C, bound and unbound [^3H] steroids were separated by addition of dextran-coated charcoal and centrifugation at 2100×g for 15 min at 4 C. Supernatants containing the [3H]-steroid receptor complexes were decanted into vials containing 4 ml Optifluor (Packard Instrument Co.), vortexed, equilibrated in a liquid scintillation counter for 30 minutes and then counted for 2 minutes. The EC50 (Effective Concentration) for each standard curve and each of the compound curves was determined by entering the counting data into a four parameter sigmoidal computer program (RiaSmart® Immunoassay Data Reduction Program, Packard Instrument Co., Meriden, Conn.). Relative binding affinity (RBA) for each compound was calculated using the following equation: EC50 of standard/EC50 of test compound×100. The standards for the PR and GR assays were unlabeled progesterone and dexamethasone, respectively. The results of these experiments are summarized in Table 1, as a ratio of the relative binding affinities of each compound for the rbPR and rbGR receptors (rbPR/rbGR).

[2] = test system: progesterone-induced endometrial glandular proliferation in rabbit uterus; assay: anti-McGinty and anti-Clauberg assays in the rabbit uterus; format: in vivo; conditions: average of anti-McGinty and anti-Clauberg results relative to CDB-2914 (=1.00)
From the text: Also given in Table 1 are the relative biological activities of the same compounds in the rabbit uterus by the anti-McGinty and anti-Clauberg assays. Compound CDB-2914 (listed at the end of the Table) was used as the control or reference compound (rabbit Biological Activity=1.00) for these experiments because results of experiments using CDB-2914 have been published before (Hild-Petito et al., 1996; Passaro et al., 1997; Reel et al., 1998; Lamer et al., 2000). For the anti-McGinty test, immature female rabbits received a subcutaneous injection of 5 μg estradiol in 10% ethanol/sesame oil daily for 6 consecutive days. On day 7, animals underwent sterile abdominal surgery to ligate a 3-4 cm segment of both uterine horns. The test compound in appropriate solvent was injected intraluminally into the ligated segment of one uterine horn and vehicle alone into the other. A stimulating dose of progesterone (267 μg/day) was administered subcutaneously to each rabbit daily for the next three days to induce endometrial proliferation. All animals were sacrificed at day 10 for removal of the uterus where a segment central to the ligatures was removed and fixed in 10% neutral buffered formalin and submitted for histological processing. Five micron sections stained with hematoxylin and cosin were evaluated microscopically for the degree of endometrial glandular proliferation. The percent inhibition of endometrial proliferation for each rabbit was calculated and the mean of the group of five animals recorded. For the Anti-Clauberg test, immature female rabbits received a subcutaneous injection of 5 μg estradiol in 10% ethanol/sesame oil daily for 6 consecutive days. On day 7, animals received progesterone by subcutaneous injection (160 μg/day) and the experimental compound in appropriate vehicle orally or subcutaneously for five consecutive days. One group of rabbits received progesterone only. Twenty-four hours after the last dose, all animals were sacrificed for removal of the uterus which was cleaned of all fat and connective tissue, weighed to the nearest 0.2 mg and placed in 10% neutral buffered formalin for subsequent histological processing. Five micron sections stained with hematoxylin and eosin were evaluated microscopically for the degree of endometrial glandular proliferation. The percent inhibition of endometrial proliferation at each dose level of the test compound was derived by comparison with progesterone-stimulated animals alone. The data presented in Table 1 (rabbit Biol. Act.) reflects the average of the results obtained for each compound by the anti-McGinty and anti-Clauberg assays relative to CDB-2914.

## 2 11-(Cyp*-hydroxy)-17α-acetoxy-11β-(4 N,N-dimethylaminophenyl)-19-norpregna-4,9-diene-3,20-dione [CDB-4125]
[1]
  rbPR/rbGR: 1.19
[2]
  rabbit Biol. Act.: 1.55

## 21-BMD-17α-acetoxy-11β-(4 N,N-dimethylaminophenyl)-19-norpregna-4,9-diene-3,20-dione [CDB-4111]
[1]
  rbPR/rbGR: 1.30
[2]
  rabbit Biol. Act.: 0.36

## 21-methoxyacetyl-17α-acetoxy-11β-(4 N,N-dimethylaminophenyl)-19-norpregna-4,9-diene-3,20-dione [CDB-4362]
[1]
  rbPR/rbGR: 4.74
[2]
  rabbit Biol. Act.: 1.25

## CCC(=O)[C@@]1(OC(C)=O)CCC2C3CCC4=CC(=O)CCC4=C3C(c3ccc(N(C)C)cc3)C[C@@]21C (stereo partly drawn) [CDB-4030, 21-methyl-17α-acetoxy-11β-(4 N,N-dimethylaminophenyl)-19-norpregna-4,9-diene-3,20-dione]
[1]
  rbPR/rbGR: 0.96
[2]
  rabbit Biol. Act.: 0.30

## CC(=O)O[C@]1(C(=O)CBr)CCC2C3CCC4=CC(=O)CCC4=C3C(c3ccc(N(C)C)cc3)C[C@@]21C (stereo partly drawn) [CDB-4031, 21-bromine-17α-acetoxy-11β-(4 N,N-dimethylaminophenyl)-19-norpregna-4,9-diene-3,20-dione]
[1]
  rbPR/rbGR: 0.69
[2]
  rabbit Biol. Act.: 0.70

## CC(=O)O[C@]1(C(=O)CF)CCC2C3CCC4=CC(=O)CCC4=C3C(c3ccc(N(C)C)cc3)C[C@@]21C (stereo partly drawn) [CDB-4058, 21-flourine-17α-acetoxy-11β-(4 N,N-dimethylaminophenyl)-19-norpregna-4,9-diene-3,20-dione]
[1]
  rbPR/rbGR: 1.08
[2]
  rabbit Biol. Act.: 0.90

## CC(=O)O[C@]1(C(=O)C[S+](C)[O-])CCC2C3CCC4=CC(=O)CCC4=C3C(c3ccc(N(C)C)cc3)C[C@@]21C (stereo partly drawn) [CDB-4101, 21-methoxythio-17α-acetoxy-11β-(4 N,N-dimethylaminophenyl)-19-norpregna-4,9-diene-3,20-dione]
[1]
  rbPR/rbGR: 0.61
[2]
  rabbit Biol. Act.: 0.65

## CC(=O)O[C@]1(C2COC(C)(C)O2)CCC2C3CCC4=CC(=O)CCC4=C3C(c3ccc(N(C)C)cc3)C[C@@]21C (stereo partly drawn) [CDB-4110, 21-acetonide-17α-acetoxy-11β-(4 N,N-dimethylaminophenyl)-19-norpregna-4,9-diene-3,20-dione]
[1]
  rbPR/rbGR: 0.70
[2]
  rabbit Biol. Act.: 0.10

## CC(=O)O[C@]1(C(=O)CSC(C)=O)CCC2C3CCC4=C(C(=O)c5ccccc5)C(=O)CCC4=C3C(c3ccc(N(C)C)cc3)C[C@@]21C (stereo partly drawn) [CDB-4119, 4-benzoin-21-acetylthio-17α-acetoxy-11β-(4 N,N-dimethylaminophenyl)-19-norpregna-4,9-diene-3,20-dione]
[1]
  rbPR/rbGR: 2.60
[2]
  rabbit Biol. Act.: 0.10

## CC(=O)O[C@]1(C(=O)CO)CCC2C3CCC4=CC(=O)CCC4=C3C(c3ccc(N(C)C)cc3)C[C@@]21C (stereo partly drawn) [CDB-4152, 21-hydroxy-17α-acetoxy-11β-(4 N,N-dimethylaminophenyl)-19-norpregna-4,9-diene-3,20-dione]
[1]
  rbPR/rbGR: 0.82
[2]
  rabbit Biol. Act.: 1.40

## CCOCC(=O)[C@@]1(OC(C)=O)CCC2C3CCC4=CC(=O)CCC4=C3C(c3ccc(N(C)C)cc3)C[C@@]21C (stereo partly drawn) [CDB-4167, 21-ethyloxy-17α-acetoxy-11β-(4 N,N-dimethylaminophenyl)-19-norpregna-4,9-diene-3,20-dione]
[1]
  rbPR/rbGR: 1.69
[2]
  rabbit Biol. Act.: 1.50

## COCC(=O)C1(OC(C)=O)CCC2C3CCC4=CC(=NO)CCC4=C3C(c3ccc(N(C)C)cc3)C[C@@]21C (stereo partly drawn) [CDB-4205, 3-hydroxyamino-2 1-methoxy-17α-acetoxy-11β-(4 N,N-dimethylaminophenyl)-19-norpregna-4,9-diene-3,20-dione]
[1]
  rbPR/rbGR: 1.99
[2]
  rabbit Biol. Act.: 1.00

## CC(=O)OCC(=O)C1(OC(C)=O)CCC2C3CCC4=CC(=NO)CCC4=C3C(c3ccc(N(C)C)cc3)C[C@@]21C (stereo partly drawn) [CDB-4206, 3-hydroxyamino-21-acetoxy-17α-acetoxy-11β-(4 N,N-dimethylaminophenyl)-19-norpregna-4,9-diene-3,20-dione]
[1]
  rbPR/rbGR: 1.44
[2]
  rabbit Biol. Act.: 0.68

## CSCC(=O)[C@@]1(OC(C)=O)CCC2C3CCC4=CC(=O)CCC4=C3C(c3ccc(N(C)C)cc3)C[C@@]21C (stereo partly drawn) [CDB-4223, 21-methylthio-17α-acetoxy-11β-(4 N,N-dimethylaminophenyl)-19-norpregna-4,9-diene-3,20-dione]
[1]
  rbPR/rbGR: 1.17

## CCOCC(=O)C1(OC(C)=O)CCC2C3CCC4=CC(=NO)CCC4=C3C(c3ccc(N(C)C)cc3)C[C@@]21C (stereo partly drawn) [CDB-4226, 3-hydroxyamino-21-ethyloxy-17α-acetoxy-11β-(4 N,N-dimethylaminophenyl)-19-norpregna-4,9-diene-3,20-dione]
[1]
  rbPR/rbGR: 1.51
[2]
  rabbit Biol. Act.: 0.54

## COCC(=O)[C@@]1(OC(C)=O)CCC2C3CCC4=C(C(=O)c5ccccc5)C(=O)CCC4=C3C(c3ccc(N(C)C)cc3)C[C@@]21C (stereo partly drawn) [CDB-4239, 4-benzoin-21-methoxy-17α-acetoxy-11β-(4 N,N-dimethylaminophenyl)-19-norpregna-4,9-diene-3,20-dione]
[1]
  rbPR/rbGR: 14.80
[2]
  rabbit Biol. Act.: 0.60

## CCC(=O)OCC(=O)[C@@]1(OC(C)=O)CCC2C3CCC4=CC(=O)CCC4=C3C(c3ccc(N(C)C)cc3)C[C@@]21C (stereo partly drawn) [CDB-4247, 21-propio[1]nyloxy-17α-acetoxy-1 1β-(4 N,N-dimethylaminophenyl)-19-norpregna-4,9-diene-3,20-dione]
[1]
  rbPR/rbGR: 2.06
[2]
  rabbit Biol. Act.: 1.70

## CC(=O)O[C@]1(C(=O)COC(=O)CN)CCC2C3CCC4=CC(=O)CCC4=C3C(c3ccc(N(C)C)cc3)C[C@@]21C (stereo partly drawn) [CDB-4306, 21-glycinate-17α-acetoxy-11β-(4 N,N-dimethylaminophenyl)-19-norpregna-4,9-diene-3,20-dione]
[1]
  rbPR/rbGR: 5.90
[2]
  rabbit Biol. Act.: 0.95

## CC(=O)O[C@]1(C(=O)CSC#N)CCC2C3CCC4=CC(=O)CCC4=C3C(c3ccc(N(C)C)cc3)C[C@@]21C (stereo partly drawn) [CDB-4352, 21-cyanothio-17α-acetoxy-11β-(4 N,N-dimethylaminophenyl)-19 norpregna-4,9-diene-3,20-dione]
[1]
  rbPR/rbGR: 4.21
[2]
  rabbit Biol. Act.: 0.57

## C=COCC(=O)[C@@]1(OC(C)=O)CCC2C3CCC4=CC(=O)CCC4=C3C(c3ccc(N(C)C)cc3)C[C@@]21C (stereo partly drawn) [CDB-4361, 21-vinyl ether-17α-acetoxy-11β-(4 N,N-dimethylaminophenyl)-19-norpregna-4,9-diene-3,20-dione]
[1]
  rbPR/rbGR: 7.20
[2]
  rabbit Biol. Act.: 3.03
